For one experiment, the system named is J774 cells. The experiment is classed as cell-based.
In experiment [1] the target is His6-PA488–735 / GST-CMG2_38–218 interaction (UniProt P13423+P58335). As to the kind of experiment: biochemical. Details: species or system Bacillus anthracis PA / human CMG2.
Experiment [2] has as its target His6-PA596–735 / GST-CMG2_38–218 interaction (Homo sapiens, UniProt P58335). The experiment in a line: biochemical. The experiment is classed as biochemical, Bacillus anthracis PA / human CMG2.
In the next experiment the target is CMG2_38–218 (Homo sapiens, UniProt P58335). As to the kind of experiment: biochemical. The experiment is classed as binding.
CMG2_38–218, sequence (P58335 38-218): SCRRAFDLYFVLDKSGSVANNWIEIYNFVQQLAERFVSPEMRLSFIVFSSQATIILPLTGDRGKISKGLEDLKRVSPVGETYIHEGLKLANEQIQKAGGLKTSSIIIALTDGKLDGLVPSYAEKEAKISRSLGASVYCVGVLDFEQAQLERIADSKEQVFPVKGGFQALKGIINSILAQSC

“Also recorded” adds a separate entry of the source. Square brackets hold non-standard residues; d marks the D form. Ends that are not written are not given here. Peptide text beside a SMILES is read from it. Phe(4-Cl) = N[C@@H](Cc1ccc(Cl)cc1)C(=O)O

His6-PA596–735 / GST-CMG2_38–218 interaction, sequence (P58335 38-218 limits assumed): as the sequence (P58335 38-218) above
His6-PA488–735 / GST-CMG2_38–218 interaction, sequence (P13423 517-764 limits assumed): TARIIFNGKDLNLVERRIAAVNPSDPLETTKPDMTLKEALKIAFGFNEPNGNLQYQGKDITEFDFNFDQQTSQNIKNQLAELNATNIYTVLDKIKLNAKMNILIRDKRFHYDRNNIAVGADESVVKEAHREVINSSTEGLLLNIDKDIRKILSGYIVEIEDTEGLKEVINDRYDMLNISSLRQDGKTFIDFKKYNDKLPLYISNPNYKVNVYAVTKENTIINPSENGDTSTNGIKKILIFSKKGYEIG
His6-PA488–735 / GST-CMG2_38–218 interaction, sequence (P58335 38-218 limits assumed): as the sequence (P58335 38-218) above

As for `CC(C)C[C@H](NC(=O)[C@@H](N)CS)C(=O)N[C@@H](CCCNC(=N)N)C(=O)N[C@@H](Cc1ccc(Cl)cc1)C(=O)N[C@H](C(=O)O)[C@@H](C)O` [CLR(4-Cl-F)T] (H-CLR[Phe(4-Cl)]T-OH), the “concentration that protects J774 cells from lethal toxin” value in the experiment on J774 cells was not below 50 µM.

On to (4-Cl-F)CRTL, for which the “protection of J774 cells from lethal toxin” value in the experiment on J774 cells is given as “No protective effect; also recorded: no such protection”.

What is called IC50 is the concentration at which inhibition is half-maximal. Read a high IC50 as weaker potency. One may read the Kd as a measure of binding affinity in units of concentration. With CLRFT [CLRFT], the results for the IC50 in experiment [1] and in experiment [2] were 77.1 ± 9.5 µM and 71.3 ± 6.5 µM, respectively. Also, on CMG2_38–218, the Kd turned out to be 30.2 ± 1.2 µM.

In experiment [1], CLRPT [CLRPT] registered an IC50 of 153 ± 2.9 µM.

In experiment [1], CMNHFPA [CMNHFPA] returned an IC50 of 49.8 ± 2.7 µM. In addition, the “IC50 for disruption of the interaction of His6-PA596–735 and GST-CMG2_38–218” value in experiment [2] is reported as “not active; also recorded: lost all activity”.

In the case of FCRTL, the “IC50 for disruption of the interaction of His6-PA488–735 and GST-CMG2_38–218” value in experiment [1] was “inactive”.

In the case of H-CMNHAPA-OH [CMNHAPA], in experiment [1], the midpoint of inhibition, the IC50, lay at 522 ± 47.8 µM and the “fold loss of activity in PA/CMG2 ELISA over the parent peptide CMNHFPA” value was 10 fold.

With HPCNAMF [HPCNAMF], in experiment [1], the IC50 was 153 ± 9.3 µM and the “fold loss of activity in PA/CMG2 ELISA over the parent peptide CMNHFPA” value is listed as 3 fold.

Values taken from article PMC5465072 (Scientific Reports, 2017).
